Results published in US20250027041A1, “COMPOSITION FOR INDUCING TRANSDIFFERENTIATION AND STEM CELLS TREATED THEREWITH” (YJ CERAPEUTICS INC., priority 2021, published 2025).

Key:
AD-MSC = experiment: Tuj1 immunochemical assay, AD-MSC; format: cell-based, human; conditions: 10, 20 or 30 μM, 5 days
Method: (§1) To determine whether transdifferentiation into ciNSC5, neural progenitor cells, occurred similarly even in MSCs of different origins when human UCB-MSCs were treated with YJ101, YJ102, or YJ103 for 5 days, the expression of neuronal markers in differentiated ciNSC5 was confirmed by immunochemical assay using MSCs from human adipose-derived mesenchymal stem cells (AD-MSCs), human bone marrow-derived mesenchymal stem cells ([…]) and human umbilical cord blood-derived mesenchymal stem cells (UCB-MSCs; Promo Cells). Specifically, AD-MSC (StemPro™ Human Adipose-Derived Stem Cell, Gibco, Passage #6) was incubated in a MesenPRO RS™ medium, BM-MSC (ATCC, Passage #6) was incubated in a Mesenchymal Stem Cell Basal Medium for Adipose, Umbilical and Bone Marrow-derived MSC (Cat. PCS-500-030, ATCC) medium, and UCB-MSC (Promo Cell, Passage #6) was incubated in a CellCor™ CD MSC (Cat. YSP001, Xell Therapeutics) medium, and then dispensed at 2.1×10^4 cells/well in a 12-well plate with an 18 mm cover glass (circular) (DMSO control group was dispensed at 3.5×10^3 cells/well). […] The culture medium was removed, washed with PBS, and then fixed with 4% paraformaldehyde at room temperature for 10 minutes. After washed three times with PBS, the cells were permeabilized with PBS-T containing 0.5% Triton X-100 for 10 minutes, washed with PBS-T three times for 10 minutes each, and then blocked with a blocking solution (PBS-T containing 5% BSA and 5% goat serum) for 1 hour. Thereafter, the cells were treated with anti-Tuj1 antibody (Cat. 801201, BioLegend) diluted 1/5000 in a blocking solution and incubated at 4° C. overnight. The next day, the cells were washed 10 times for 10 minutes each with PBS-T, and then treated with anti-mouse IgG-cy3 diluted 1/2000 in a blocking solution, and incubated for 1 hour in dark conditions. Next, the cells were washed 10 times for 10 minutes each with PBS-T, mounted with a mounting solution containing DAPI, and then observed with a confocal microscope.

BM-MSC = experiment: Tuj1 immunochemical assay, BM-MSC; format: cell-based, human; conditions: 10, 20 or 30 μM, 5 days
Method: as §1

human UCB-MSCs = experiment: RNA-seq gene expression; format: cell-based; conditions: UCB-MSCs treated with YJ102 30 μM for 3 days
Method: The expression gene profile of ciNSC5, which was transdifferentiated from human UCB-MSCs by treating YJ102 for 5 days, was analyzed using genome-wide RNA-seq. Specifically, 1×10^5 human UCB-MSCs were dispensed in a 60 mm culture dish (a control group dispensed at 1.67×10^4), the cells were treated with YJ102 dissolved at 30 mM in DMSO at a concentration of 30 μM (the control group treated with DMSO), and incubated at 37° C. for 2, 3, or 5 days. Thereafter, the culture medium was removed, washed with PBS, and the cells were collected with a scraper and transferred to a microcentrifuge tube. PBS was removed by centrifugation, and the cells were added with 500 μl of a Tri-RNA Reagent and mixed well by pipetting. The mixture was added with 100 μl of chloroform, the tube was mixed by vortexing for 15 seconds, and then centrifuged at 4° C. at 14,000 rpm for 20 minutes. Thereafter, the upper aqueous phase was transferred to a new microcentrifuge tube using a pipette, and added and mixed with 550 μl of isopropanol. The mixture was centrifuged at 14,000 rpm at 4° C. for 20 minutes, the supernatant was discarded, and the pellet was washed with 1 ml of 70% ethanol. […] The pellet was resuspended in 100 μl RNase-free DIW, centrifuged at 14,000 rpm for 10 minutes at 4° C. to remove the supernatant, air-dried, and then the RNA concentration was quantified using nanodrop. […]

CtBP1 = CtBP1 (Homo sapiens, UniProt Q13363); experiment: Immunoprecipitation, CtBP1 oligomerization in UCB-MSCs; format: cell-based; design: expressed in transfected cells; host or cells: human UCB-MSC; conditions: YJ102 20 μM; FLAG-CtBP1 + HA-CtBP1, 48 hours
Method: To determine the effect of YJ102 on the regulation of oligomerization of C-terminal Binding Proteins (CtBPs) in human UCB-MSCs, immunoprecipitation analysis was performed. Specifically, UCB-MSCs were dispensed at 4×10^5 cells/ml in a 60 mm culture dish, and the next day, FLAG-CtBP1, HA-CtBP1, FLAG-CtBP2, and HA-CtBP1 were transfected into cells using 4 μl jetPRIME. Thereafter, the cells were treated with YJ102 (stock 30 mM in DMSO) and MTOB (stock 300 mM in DMSO) at 20 μM and 300 μM, respectively (Table 1). After 48 hours of transfection, proteins were extracted in the same manner as in Example 1-1. Protein G agarose slurry was washed with PBS and blocked with 1 ml of 1% BSA, washed with PBS, and added with 1 μg of anti-HA antibody diluted with 1.5 ml of PBS and incubated at 4° C. for 2 hours. Thereafter, the cells were centrifuged at 3,000×g for 2 minutes to remove the supernatant, washed with an IP150 buffer two times, added with 1 μg of the protein extracted above, and incubated at 4° C. overnight. After incubation, the cells were centrifuged at 3,000×g for 2 minutes to remove the supernatant, washed with PBS three times, added with 50 μl of 1 mg/ml HA peptide diluted with PBS, and incubated at room temperature for 10 minutes. […]

CCc1ccc(N(C(=O)COC)c2nc3cc(Cl)ccc3o2)cc1 [YJ102]
expression of Tuj1 (AD-MSC): increased | expression of Tuj1 (BM-MSC): increased | expression of cell division-related genes (RNA-seq) (human UCB-MSCs): decreased | expression of nervous system-related genes (RNA-seq) (human UCB-MSCs): increased | oligomerization of CtBP1 (CtBP1): induced oligomerization
